Assay results reported in patent EP4574212A1, “HISTONE DEACETYLASE INHIBITORS” (Centre National de la Recherche Scientifique, priority 2023, dated 2025).
One block for each compound: values may come before it. Peptide text beside a SMILES is read from it. * marks the point of attachment. X1 = Nc1ccccc1NC(=O)c1ccc(CC(=O)*)cc1

How the values were obtained:
HDAC [1] = assay: Fluorescence-based HDAC inhibition assay in solution using HeLa nuclear extracts
HDAC [2] = assay: as above; format: biochemical
[3] = benzamide-based multivalent HDACi, procedure of Example 8 (HeLa nuclear extracts, TosGPK(Ac)-AMC substrate)
[4] = hydroxamic acid-based multivalent HDACi, HeLa nuclear extracts, TosGPK(Ac)-AMC substrate 43 µM, 45 min at 37 °C, average of at least 2 experiments

Compound: RAFT-(4-(2-((5-X-5-oxopentyl)amino)-2-oxoethyl)-N-(2-aminophenyl)benzamide)4 [MuH2220]
EC50 (HDAC [1]; [3]): 1.22 ± 0.7 µM

Compound: O=C(CCCCCCC(=O)Nc1cc(NC(=O)CCCCCCC(=O)NO)c(NC(=O)CCCCCCC(=O)NO)cc1NC(=O)CCCCCCC(=O)NO)NO [MuH2344, N1,N1',N1",N1‴-(Benzene-1,2,4,5-tetrayl)tetrakis(N8-hydroxyoctanediamide)]
EC50 (HDAC [2]; [4]): 2.25 ± 0.65 µM

Compound: RAFT-(4-(2-X-2-oxoethyl)-N-(2-aminophenyl)benzamide)4 [MuH2122]
EC50 (HDAC [1]; [3]): 1.59 ± 0.87 µM

Compound: Nc1ccccc1NC(=O)c1ccc(CC(=O)NCCCNC(=O)Cc2ccc(C(=O)Nc3ccccc3N)cc2)cc1 [MuH2320, 4,4'-((Propane-1,3-diylbis(azanediyl))bis(2-oxoethane-2,1-diyl))bis(N-(2-aminophenyl)benzamide)]
EC50 (HDAC [2]; [3]): 9.21 ± 2.55 µM

Compound: O=C(CCCCCCC(=O)Nc1cccc(NC(=O)CCCCCCC(=O)NO)c1)NO [MuH2324, N^1,N^1'-(1,3-Phenylene)bis(N8-hydroxyoctanediamide)]
increase in activity compare to the SAHA (HDAC [2]; HDAC inhibition, versus monovalent inhibitor SAHA): 14 fold
EC50 (HDAC [2]; [4]): 0.06 ± 0.01 µM

Compound: RAFT-(N^1-(4-(2-amino-2-oxoethyl)phenyl)-N^8-hydroxyoctane diamide))2 [MuH2357]
EC50 (HDAC [1]; [4]): 0.23 ± 0.07 µM

Compound: RAFT-(4-pentyn-1-ol)4 [MuH2123, reference compound]
EC50 (µM) (HDAC [1]; [4]): Inact

Compound: RAFT-(N-(2-aminophenyl)-4-(2-(((1-X-1H-1,2,3-triazol-4-yl)methyl)amino)-2-oxoethyl) benzamide)4 [MuH2222]
EC50 (HDAC [1]; [3]): 1.76 ± 0.89 µM

Compound: C[C@@H]1NC(=O)CNC(=O)[C@@H]2CCCN2C(=O)[C@H](CCCCNC(=O)Cc2ccc(C(=O)Nc3ccccc3N)cc2)NC(=O)[C@H](C)NC(=O)[C@H](C)NC(=O)CNC(=O)[C@@H]2CCCN2C(=O)[C@H](CCCCNC(=O)Cc2ccc(C(=O)Nc3ccccc3N)cc2)NC(=O)[C@H](C)NC1=O [MuH2224, RAFT-(4-(2-X-2-oxoethyl)-N-(2-aminophenyl)benzamide)2] (cyclo(AAK(X1)PGAAK(X1)PG))
EC50 (HDAC [1]; [3]): 7.81 ± 5.27 µM

Continued, values first:

EC50 (HDAC [2]; [4]): 0.48 ± 0.32 µM
Compound: O=C(CCCCCCC(=O)Nc1ccc(NC(=O)CCCCCCC(=O)NO)cc1)NO [MuH2323, N^1,N^1'-(1,4-Phenylene)bis(N8-hydroxyoctanediamide)]

EC50 (HDAC [2]; [4]): 0.23 ± 0.16 µM
Compound: O=C(CCCCCCc1cn(CCCCCCC(=O)NO)nn1)NO [MuH2321, 7,7'-(1H-1,2,3-Triazole-1,4-diyl)bis(N-hydroxyheptanamide)]

EC50 (HDAC [2]; [3]): 31.5 ± 29.9 µM
Compound: Nc1ccccc1NC(=O)CCCCCCC(=O)Nc1cccc(NC(=O)CCCCCCC(=O)Nc2ccccc2N)c1 [MuH2345, N^1,N^1'-(1,3-Phenylene)bis(N8-(2-aminophenyl)octanediamide)]

EC50 (HDAC [1]; [4]): 5.76 µM
Compound: C[C@@H]1NC(=O)[C@H](CCCCNC(=O)CCCCCCC(=O)NO)NC(=O)CNC(=O)[C@@H]2CCCN2C(=O)[C@H](CCCCNC(=O)CCCCCCC(=O)NO)NC(=O)[C@H](C)NC(=O)[C@H](CCCCNC(=O)CCCCCCC(=O)NO)NC(=O)CNC(=O)[C@@H]2CCCN2C(=O)[C@H](CCCCNC(=O)CCCCCCC(=O)NO)NC1=O [MuH2121, RAFT-(methyl 8-(hydroxyamino)-8-oxooctanoate)4]

EC50 (HDAC [1]; [4]): 2.84 µM
Compound: C[C@@H]1NC(=O)[C@H](CCCCNC(=O)CCCCCCC(=O)NO)NC(=O)CNC(=O)[C@@H]2CCCN2C(=O)[C@H](CCCCNC(=O)CCCCCCC(=O)NO)NC(=O)[C@H](C)NC(=O)[C@H](CCCCNC(=O)CCCCCCC(=O)NO)NC(=O)CNC(=O)[C@@H]2CCCN2C(=O)[C@H](CCCCNC(=O)CCCCCCC(=O)NO)NC1=O [MuH2120, RAFT-(methyl 8-(hydroxyamino)-8-oxooctanoate)4]

EC50 (HDAC [2]; [4]): 0.52 ± 0.11 µM
Compound: O=C(CCCCCCC(=O)Nc1ccccc1NC(=O)CCCCCCC(=O)NO)NO [MuH2322, N^1,N^1'-(1,2-Phenylene)bis(N^8-hydroxyoctanediamide)]

EC50 (HDAC [2]; [3]): 7.23 ± 2.07 µM
Compound: Nc1ccccc1NC(=O)c1ccc(CNC(=O)OCc2cccnc2)cc1 [MS275, reference compound]
